Values of other authors in US9877974B2, “Topical formulations comprising a steroid” (Dr. Reddy's Laboratories Ltd., priority 2009, dated 2018).

Solubility in acetone (acetone): freely soluble
Solubility in chloroform (chloroform): freely soluble
Solubility in ethanol (ethanol): sparingly soluble
Solubility in water (water): practically insoluble
Compound: CCC(=O)OCC(=O)[C@@]1(OC(=O)CC)[C@@H](C)C[C@H]2[C@@H]3CCC4=CC(=O)C=C[C@]4(C)[C@@]3(F)[C@@H](O)C[C@@]21C [Betamethasone dipropionate, 9-fluoro-11(β),17,21-trihydroxy-16(β)-methylpregna-1,4-diene-3,20-dione 17,21-dipropionate]
